Results as given in ChEMBL document CHEMBL1201862, “PubChem BioAssay data set” (2004).
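Exposure lasted 48 hours, with cells grown in 96-well plates and compounds tested at five concentrations. At the GI50, growth is halved.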 Activity calls are given as the source filed them. Cut-off read from the data, not from the text of the source: active = GI50 up to about 1.1 µM and inactive = higher.

Tests used:
Test in all cases: growth of human tumour cells (NCI), 48 h
[1] = system: LOX IMVI
[2] = system: UACC-257
[3] = system: ACHN
[4] = system: K562
[5] = system: SN12C
[6] = system: NCI-H460
[7] = system: MDA-MB-231
[8] = system: NCI/ADR-RES
[9] = system: PC-3
[10] = system: HCT-15
[11] = system: SK-MEL-5
[12] = system: HOP-62
[13] = system: Malme-3M
[14] = system: SW-620
[15] = system: IGROV-1
[16] = system: CAKI-1
[17] = system: HCC 2998
[18] = system: RPMI-8226
[19] = system: U-251
[20] = system: SK-MEL-2

COC(=O)c1cc(C)ccc1CC(Cc1ccccc1C)C(=O)OC (stereo unspecified)
GI50 [1]: 12.5 µM (inactive) | GI50 [2]: 27 µM (inactive) | GI50 [3]: 75.2 µM (inactive) | GI50 [4]: 10.6 µM (inactive) | GI50 [5]: 44.9 µM (inactive) | GI50 [6]: 78 µM (inactive) | GI50 [7]: 59.6 µM (inactive) | GI50 [8]: 32.6 µM (inactive) | GI50 [9]: 55.2 µM (inactive) | GI50 [10]: 21.4 µM | GI50 [11]: 14.1 µM (inactive) | GI50 [12]: > 100 µM (inactive) | GI50 [13]: 23.2 µM (inactive) | GI50 [14]: 69 µM (inactive) | GI50 [15]: 45.9 µM (inactive) | GI50 [16]: 32.8 µM (inactive) | GI50 [17]: 34.9 µM (inactive)

COc1ccc(N(CN2C(=O)CCC2OC)C(C)=O)cc1 (stereo unspecified)
GI50 [1]: > 100 µM (inactive) | GI50 [2]: > 100 µM (inactive) | GI50 [3]: > 100 µM (inactive) | GI50 [4]: > 100 µM (inactive) | GI50 [5]: > 100 µM (inactive) | GI50 [6]: > 100 µM (inactive) | GI50 [7]: > 100 µM (inactive) | GI50 [18]: > 100 µM (inactive) | GI50 [8]: > 100 µM (inactive) | GI50 [9]: > 100 µM (inactive) | GI50 [10]: > 100 µM | GI50 [11]: > 100 µM (inactive) | GI50 [19]: > 100 µM (inactive) | GI50 [12]: > 100 µM (inactive) | GI50 [13]: > 100 µM (inactive) | GI50 [14]: > 100 µM (inactive) | GI50 [15]: > 100 µM (inactive) | GI50 [16]: > 100 µM (inactive) | GI50 [20]: > 100 µM (inactive)

CSCCCN(CCCSC)CCCSC
GI50 [1]: > 100 µM (inactive) | GI50 [2]: > 100 µM (inactive) | GI50 [4]: 97.5 µM (inactive) | GI50 [5]: > 100 µM (inactive) | GI50 [6]: > 100 µM (inactive) | GI50 [7]: > 100 µM (inactive) | GI50 [8]: > 100 µM (inactive) | GI50 [9]: > 100 µM (inactive) | GI50 [10]: > 100 µM | GI50 [11]: > 100 µM (inactive) | GI50 [19]: > 100 µM (inactive) | GI50 [12]: > 100 µM (inactive) | GI50 [14]: > 100 µM (inactive) | GI50 [15]: > 100 µM (inactive) | GI50 [17]: > 100 µM (inactive)

CC[C@H](NC1=C(Cl)C(=O)c2c(O)ccc(O)c2C1=O)C(=O)OC
GI50 [1]: 3.64 µM (inactive) | GI50 [2]: 3.66 µM (inactive) | GI50 [3]: > 10 µM (inactive) | GI50 [4]: 3.94 µM (inactive) | GI50 [5]: 3.05 µM (inactive) | GI50 [6]: > 10 µM (inactive) | GI50 [7]: 3.33 µM (inactive) | GI50 [18]: > 10 µM (inactive) | GI50 [8]: 7.28 µM (inactive) | GI50 [9]: 6.9 µM (inactive) | GI50 [10]: 5.33 µM | GI50 [11]: 6.53 µM (inactive) | GI50 [19]: 6.12 µM (inactive) | GI50 [12]: > 10 µM (inactive) | GI50 [13]: 4.28 µM (inactive) | GI50 [14]: 5.79 µM (inactive) | GI50 [15]: > 10 µM (inactive) | GI50 [16]: > 10 µM (inactive) | GI50 [20]: > 10 µM (inactive)

CC(C)(C)c1cc(C2=NNC(c3ccccc3)C2)cc(C(C)(C)C)c1O (stereo unspecified)
GI50 [1]: 15.9 µM (inactive) | GI50 [2]: 14.3 µM (inactive) | GI50 [3]: 16.3 µM (inactive) | GI50 [5]: 16.6 µM (inactive) | GI50 [6]: 15.4 µM (inactive) | GI50 [7]: 14.2 µM (inactive) | GI50 [18]: 15 µM (inactive) | GI50 [8]: 17 µM (inactive) | GI50 [9]: 14.6 µM (inactive) | GI50 [10]: 13.8 µM | GI50 [11]: 11 µM (inactive) | GI50 [19]: 15.5 µM (inactive) | GI50 [12]: 17.1 µM (inactive) | GI50 [13]: 17.9 µM (inactive) | GI50 [14]: 15.7 µM (inactive) | GI50 [15]: 15.7 µM (inactive) | GI50 [16]: 12.9 µM (inactive) | GI50 [20]: 14.8 µM (inactive)

N#CC(C#N)/N=N/c1ccc(-c2nc3ccccc3o2)cc1
GI50 [1]: 13.1 µM (inactive) | GI50 [2]: 4.41 µM (inactive) | GI50 [3]: 12.9 µM (inactive) | GI50 [4]: 8.61 µM (inactive) | GI50 [5]: 13.2 µM (inactive) | GI50 [6]: 13.9 µM (inactive) | GI50 [7]: 17.8 µM (inactive) | GI50 [8]: 17.5 µM (inactive) | GI50 [9]: 8 µM (inactive) | GI50 [10]: 14.8 µM | GI50 [11]: 2.05 µM (inactive) | GI50 [19]: 14.3 µM (inactive) | GI50 [12]: 16.6 µM (inactive) | GI50 [13]: 13.3 µM (inactive) | GI50 [14]: 11.2 µM (inactive) | GI50 [15]: 19.4 µM (inactive) | GI50 [20]: 12.4 µM (inactive) | GI50 [17]: 1.22 µM (inactive)
